Structures can show the parent of a compound that is named as a salt.

For test [1], the target named is T1, ALK1 (GST-modified kinase domain ACVRL1 (139-503)) (Homo sapiens, UniProt P37023).
T1 construct: N-terminally GST-modified kinase domain ACVRL1 (139-503); GST (N)
T1 sequence (P37023 139-503): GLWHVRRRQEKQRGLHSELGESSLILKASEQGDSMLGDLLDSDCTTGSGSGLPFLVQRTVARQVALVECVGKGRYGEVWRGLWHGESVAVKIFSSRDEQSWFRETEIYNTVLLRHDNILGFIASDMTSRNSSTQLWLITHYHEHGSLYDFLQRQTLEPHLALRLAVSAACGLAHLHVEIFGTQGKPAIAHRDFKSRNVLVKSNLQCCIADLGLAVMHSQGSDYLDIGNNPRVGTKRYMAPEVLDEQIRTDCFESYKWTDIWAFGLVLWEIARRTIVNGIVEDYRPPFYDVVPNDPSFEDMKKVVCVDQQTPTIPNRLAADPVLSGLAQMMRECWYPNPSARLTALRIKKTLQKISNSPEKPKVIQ
In words: ALK1 kinase inhibition assay (33P-ATP filter binding, Reaction Biology). It counts as biochemical. The settings on record: casein substrate, 100 μM ATP (Km ATP), 120 min ambient temperature. How it is done: (§1) The protein sequences of the kinases targeted and accompanying information are described in publically available data base http://www.uniprot.org/uniprot/for ALK1 www.uniprot.org/uniprot/P37023, for ALK2 www.uniprot.org/uniprot/Q04771 and for ALK5 www.uniprot.org/uniprot/P36897. IC50 determination of the novel inhibitors described was performed at Reaction Biology Corp., Malvern, Pa., USA, with assay conditions open to public at www.reactionbiology.com/webapps/site/KinaseDetail.aspx?page=Kinases&id=1, and www.reactionbiology.com/webapps/site/Kinase Assay Protocol.aspx. In addition, they were specified previously in Anastassiadis et al. Nat. Biotechnol. 29(11): 1039-1045. doi:10.1038/nbt.2017.
A1) ALK1 Kinase Inhibition Assay
(§2) was performed with N-terminally GST-modified kinase domain ACVRL1 (139-503) and 20 mg/ml Casein as substrate in reaction buffer of 20 mM HEPES pH 7.5, 10 mM MgCl2, 1 mM EGTA, 0.02% Brij, 0.02 mg/ml BSA, 0.1 mM Na3VO4, 2 mM DTT, 1% DMSO. […] Reactions were carried out at ambient temperature for 120 min, followed by spotting of the reactions onto P81 ion exchange filter paper (Whatman Inc., Picataway, N.J., USA). Unbound phosphate was removed by extensive washing of filters in 0.75% phosphoric acid. After subtraction of background derived from control reactions without enzyme activity, kinase activity data was expressed as the percent remaining kinase activity in test samples compared to vehicle (DMSO) reactions. IC50 values and curve fits were obtained using Prism (GraphPad Software).

Test [2] has as its target T2, ALK2 (GST-modified kinase domain ACVR1(145-509)) (Homo sapiens, UniProt Q04771).
T2 construct: N-terminally GST-modified kinase domain ACVR1(145-509); GST (N)
T2 sequence (Q04771 145-509): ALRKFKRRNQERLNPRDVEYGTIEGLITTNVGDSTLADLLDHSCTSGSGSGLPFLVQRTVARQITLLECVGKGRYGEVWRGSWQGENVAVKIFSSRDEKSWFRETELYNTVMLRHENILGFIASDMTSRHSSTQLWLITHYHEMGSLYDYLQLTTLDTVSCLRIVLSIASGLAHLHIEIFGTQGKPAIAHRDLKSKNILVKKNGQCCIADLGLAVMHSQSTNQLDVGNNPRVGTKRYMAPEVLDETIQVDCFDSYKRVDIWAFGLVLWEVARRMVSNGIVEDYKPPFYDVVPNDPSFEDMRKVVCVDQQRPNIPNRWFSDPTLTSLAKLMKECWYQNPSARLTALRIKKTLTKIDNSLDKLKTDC
In words: ALK2 kinase inhibition assay (33P-ATP filter binding, Reaction Biology). Type of test: biochemical. The settings on record: casein substrate, 20 μM ATP (Km ATP), 120 min ambient temperature. As to the method: as §1
A2) ALK2 Kinase Inhibition Assay
as §2, with “performed similar to procedure A1” for “performed”, “domain ACVR1(145-509)” for “domain ACVRL1 (139-503)”, “and 1” for “and 20”

Test [3] concerns the target T3, ALK5 (TGFβR1; GST-modified TGFBR1 (200-503)) (Homo sapiens, UniProt P36897).
T3 construct: Using GST-Modified TGFBR1 (200-503); GST
T3 sequence (P36897 200-503): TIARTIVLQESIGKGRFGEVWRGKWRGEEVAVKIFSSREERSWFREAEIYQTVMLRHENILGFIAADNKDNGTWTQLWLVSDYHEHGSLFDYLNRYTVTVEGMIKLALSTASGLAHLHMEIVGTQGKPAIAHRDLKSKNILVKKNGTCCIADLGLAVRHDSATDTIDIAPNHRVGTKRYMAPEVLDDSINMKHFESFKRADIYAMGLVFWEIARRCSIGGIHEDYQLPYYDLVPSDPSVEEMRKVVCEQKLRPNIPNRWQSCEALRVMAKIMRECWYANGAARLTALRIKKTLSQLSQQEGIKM
In words: ALK5 kinase inhibition assay (33P-ATP filter binding, Reaction Biology). It counts as biochemical. The settings on record: casein substrate, 200 μM ATP. How it is done: as §1
A3) ALK5 Kinase Inhibition Assay Was Performed Similar to Procedures A1 and A2 Using GST-Modified TGFBR1 (200-503) and 1 mg/ml Casein as Substrate at 200 μM ATP.

Test [4] deals with ALK1-mediated SMAD1/5 phosphorylation in HUVEC cells. In words: Cell-based immunofluorescence assay for ALK1-mediated SMAD1/5 phosphorylation in HUVEC cells. Particulars: Homo sapiens, 1.5 ng/ml BMP-9 with compound for 2 h, % nuclei with pSMAD1/5 signal, read-out: Smad 1/5 IC50. From the text:
In vitro cell-based Immunofluorescence-Assay for identification of inhibitors of ALK1-mediated SMAD1/5 phosphorylation in HUVEC cells:
ALK1 is a type I cell-surface receptor for the TGF-β superfamily of ligands. In adults ALK1 is mainly expressed on activated endothelial cells, e.g. during wound healing or in tumor angiogenesis. BMP9 and BMP10 are high affinity ligands for ALK1.
BMP9 and BMP10 binding leads to the phosphorylation of so-called Smad1 at Ser463 and Ser465 in the carboxy-terminal motif SSXS, as well as Smad5 and Smad8 at their corresponding sites. These phosphorylated Smads dimerize with the coactivating Smad4 and translocate to the nucleus, where they stimulate transcription of target genes.
Primary endothelial cells (HUVEC: Human Umbilical Vein Endothelial Cells; supplier Promocell) are cultivated in the culture medium obtained from Promocell (with supplements corresponding to 5% FCS) for maximum 5 passages, seeded into black 384-well culture plates with clear bottom (3000 cells/well/30 μl), and incubated for 16-24 hours at 37° C., 5% CO2 and 90% rH.
The following day cells were serum-starved for 2-3 h in order to stop TGF-ß-mediated signalling derived from ligands present in FBS. 1.5 ng/ml BMP-9 was than added in parallel with test compounds for 2 h at 37° C., 5% CO2 in order to identify compounds which block functional activity of ALK1 leading to phosphorylation and nuclear translocation of SMAD1/5/8.
After fixation (15 min 4% Formaldehyd in PBS) and permeabilization (10 min 0.2% Triton X-100 in PBS) an indirect immunocytochemical staining is performed with a specific Phospho-Smad1/5 (Ser463/465) antibody (Cell Signaling #9516) and Alexa488-labelled secondary anti-rabbit-IgG-antibody. DNA staining with Propidium Iodide allowed parallel cell counting. Image acquisition and analysis was performed on an MDS ImageXpress Ultra confocal High Content Reader using the image analysis software MetaXpress. Final read-out were % nuclei with a pSMAD1/5 signal above a defined background.
The final DMSO concentration in the assay was 0.5%. DMSO-treated HUVEC cells served as neutral control (=0%) and cells treated with 10 μM of a reference inhibitor described in a patent served as inhibitor control (=−100%). Raw data were normalised to the neutral and inhibitory references. The assay was performed as dose response (10 compound dilutions, 1 nM-30 μM).

Take `O=c1[nH]cc(-c2cccc(CO)c2)cc1-c1nc2cc(N3CCOCC3)ccc2[nH]1` [Compound A1, 5-(3-Hydroxymethyl-phenyl)-3-(5-morpholin-4-yl-1H-benzimidazol-2-yl)-1H-pyridin-2-one]: the IC50 in test [1] turned out to be 39 nM; in test [2], 94 nM; in test [3] it was 3600 nM; in test [4] it was 1300 nM.

Turning to `O=c1[nH]cc(-c2cccc(CO)c2)cc1-c1nc2cc(N3CCC(O)CC3)ccc2[nH]1` [Compound A12, 5-(3-Hydroxymethyl-phenyl)-3-[5-(4-hydroxy-piperidin-1-yl)-1H-benzimidazol-2-yl]-1H-pyridin-2-one], the IC50 came to 28 nM in test [1], 57 nM in test [2], 4100 nM in test [3] and 7200 nM in test [4].

`O=c1[nH]cc(-c2cccc(CO)c2)cc1-c1nc2cc(N3CCNCC3)ccc2[nH]1` [Compound A13, 5-(3-Hydroxymethyl-phenyl)-3-(5-piperazin-1-yl-1H-benzimidazol-2-yl)-1H-pyridin-2-one dihydrochloride]: the IC50 in test [1] was 1 nM; in test [2], 1 nM; in test [3], 970 nM; in test [4], 400 nM.

As to `O=c1[nH]cc(-c2ccc(CO)cc2)cc1-c1nc2cc(N3CCNCC3)ccc2[nH]1` [Compound A16, 5-(4-Hydroxymethyl-phenyl)-3-(5-piperazin-1-yl-1H-benzimidazol-2-yl)-1H-pyridin-2-one], the IC50 is 6 nM in test [1], 8 nM in test [2], 2400 nM in test [3] and 590 nM in test [4].

As for `O=c1[nH]cc(-c2ccc(F)c(CO)c2)cc1-c1nc2cc(N3CCCNCC3)ccc2[nH]1` [Compound A24, 3-(5-[1,4]Diazepan-1-yl-1H-benzimidazol-2-yl)-5-(4-fluoro-3-hydroxymethyl-phenyl)-1H-pyridin-2-one], the IC50 in test [1] was 33 nM; in test [2], 41 nM; in test [3], 6500 nM.

`CN1CCN(c2ccc3[nH]c(-c4cc(-c5cccc(CO)c5F)c[nH]c4=O)nc3c2)CC1` [Compound A37, 5-(2-Fluoro-3-hydroxymethyl-phenyl)-3-[5-(4-methyl-piperazin-1-yl)-1H-benzimidazol-2-yl]-1H-pyridin-2-one trifluoroacetate]: the IC50 in test [1] turned out to be 4 nM; in test [2], 30 nM; in test [3], 2500 nM.

Turning to `O=c1[nH]cc(-c2ccnc3[nH]ccc23)cc1-c1nc2cc(N3CCC(O)CC3)ccc2[nH]1` [Compound A38, 3-[5-(4-Hydroxy-piperidin-1-yl)-1H-benzimidazol-2-yl]-5-(1H-pyrrolo[2,3-b]-pyridin-4-yl)-1H-pyridin-2-one], the IC50 in test [1] amounted to 3.7 nM; in test [2], 19 nM; in test [3], 320 nM.

As to `COc1ccc2[nH]c(-c3cc(-c4ccnc5[nH]ccc45)c[nH]c3=O)nc2c1` [Compound A42, 3-(5-Methoxy-1H-benzimidazol-2-yl)-5-(1H-pyrrolo[2,3-b]pyridin-4-yl)-1H-pyridin-2-one], in test [4], the IC50 is 7900 nM.

As to `Cc1[nH]c2ncccc2c1-c1c[nH]c(=O)c(-c2nc3cc(N4CCNCC4)ccc3[nH]2)c1` [Compound A45, 5-(2-Methyl-1H-pyrrolo[2,3-b]pyridin-3-yl)-3-(5-piperazin-1-yl-1H-benzimidazol-2-yl)-1H-pyridin-2-one], the IC50 in test [4] was found to be 5000 nM.

On to `O=c1[nH]cc(-c2ccnc3[nH]ccc23)cc1-c1nc2cc(N3CC4CCC(C3)N4)ccc2[nH]1` [Compound A46, 3-[6-(3,8-Diaza-bicyclo[3.2.1]oct-3-yl)-1H-benzimidazol-2-yl]-5-(1H-pyrrolo-[2,3-b]pyridin-4-yl)-1H-pyridin-2-one], for which the IC50 in test [4] was found to be 4400 nM.

Consider `O=c1[nH]cc(-c2ccnc3[nH]ccc23)cc1-c1nc2cc(N3CCCNCC3)ccc2[nH]1` [Compound A47, 3-(5-[1,4]Diazepan-1-yl-1H-benzimidazol-2-yl)-5-(1H-pyrrolo[2,3-b]pyridin-4-yl)-1H-pyridin-2-one], for which the IC50 in test [1] worked out at 1 nM; in test [2], 38 nM; in test [3] it was 200 nM.

Take `CN1C2CCC1CN(c1ccc3[nH]c(-c4cc(-c5ccnc6[nH]ccc56)c[nH]c4=O)nc3c1)C2` [Compound A53, 3-[6-(8-Methyl-3,8-diaza-bicyclo[3.2.1]oct-3-yl)-1H-benzimidazol-2-yl]-5-(1H-pyrrolo[2,3-b]pyridin-4-yl)-1H-pyridin-2-one]: in test [4], the IC50 is 2800 nM.

For the origin of these results see patent US10179777B2, “3-(1H-benzimidazol-2-yl)-1H-pyridin-2-one derivatives” (MERCK PATENT GMBH, priority 2015, dated 2019).
